Data from patent US20260285850A1, “SUBSTITUTED OXAZOLIDINONES AND IMIDAZOLINONES AS HERBICIDES” (FMC CORPORATION, priority 2023, published 2026).

Tests used:
Type in all cases: in vivo
[1] = test system: green foxtail (Setaria viridis); assay: Test A preemergence soil spray, visual injury rating 0-100; details: 10 days
Procedure, shortened: (§1)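 Compound in a non-phytotoxic, surfactant-containing solvent is applied either as a directed soil spray before seedlings emerge or onto emerged plants 2-10 cm tall; pots hold a loam-sand blend. Plants grow 10 days under greenhouse conditions and are rated by eye against untreated controls (0 no effect, 100 complete control).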

[2] = test system: soybean (Glycine max); assay: as above; details: 10 days
Procedure, shortened: as §1

[3] = test system: oat, wild (wild oat, Avena fatua); assay: as above; details: 10 days
Procedure, shortened: as §1

[4] = test system: ryegrass, Italian (italian ryegrass, Lolium multiflorum); assay: as above; details: 10 days
Procedure, shortened: as §1

[5] = test system: corn (Zea mays); assay: as above; details: 10 days
Procedure, shortened: as §1

[6] = test system: blackgrass (Alopecurus myosuroides); assay: as above; details: 10 days
Procedure, shortened: as §1

[7] = test system: barnyardgrass (Echinochloa crus-galli); assay: as above; details: 10 days
Procedure, shortened: as §1

[8] = test system: wheat (Triticum aestivum); assay: as above; details: 10 days
Procedure, shortened: as §1

[9] = test system: ragweed (common ragweed, Ambrosia artemisiifolia); assay: as above; details: 10 days
Procedure, shortened: as §1

[10] = test system: palmer (palmer amaranth, palmer pigweed, Amaranthus palmeri); assay: as above; details: 10 days
Procedure, shortened: as §1

[11] = test system: kochia (Bassia scoparia); assay: as above; details: 10 days
Procedure, shortened: as §1

[12] = test system: green foxtail (Setaria viridis); assay: Test A postemergence application, visual injury rating 0-100
Procedure, shortened: as §1

[13] = test system: soybean (Glycine max); assay: as above
Procedure, shortened: as §1

[14] = test system: oat, wild (wild oat, Avena fatua); assay: as above
Procedure, shortened: as §1

[15] = test system: ryegrass, Italian (italian ryegrass, Lolium multiflorum); assay: as above
Procedure, shortened: as §1

[16] = test system: corn (Zea mays); assay: as above
Procedure, shortened: as §1

[17] = test system: blackgrass (Alopecurus myosuroides); assay: as above
Procedure, shortened: as §1

[18] = test system: horseweed (Erigeron canadensis); assay: as above
Procedure, shortened: as §1

[19] = test system: barnyardgrass (Echinochloa crus-galli); assay: as above
Procedure, shortened: as §1

[20] = test system: wheat (Triticum aestivum); assay: as above
Procedure, shortened: as §1

[21] = test system: ragweed (common ragweed, Ambrosia artemisiifolia); assay: as above
Procedure, shortened: as §1

[22] = test system: palmer (palmer amaranth, palmer pigweed, Amaranthus palmeri); assay: as above
Procedure, shortened: as §1

[23] = test system: galium (catchweed bedstraw, Galium aparine); assay: as above
Procedure, shortened: as §1

[24] = test system: kochia (Bassia scoparia); assay: as above
Procedure, shortened: as §1

[25] = test system: sedge, umbrella (small-flower umbrella sedge, Cyperus difformis); assay: Test B flooded paddy test, visual plant response rating 0-100; details: 250 g ai/ha, Flood, applied to paddy water, evaluated after 13 days
Procedure, shortened: (§2)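 Paddy-water application: test compounds went directly into water flooded 3 cm above the soil surface, with plants at 2 leaves. After a 13-day greenhouse period, responses were judged by eye relative to controls; a dash marks an untested entry.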

[26] = test system: barnyardgrass (Echinochloa crusgalli); assay: as above; details: 250 g ai/ha, Flood, applied to paddy water, evaluated after 13 days
Procedure, shortened: as §2

[27] = test system: rice (Oryza sativa); assay: as above; details: 250 g ai/ha, Flood, applied to paddy water, evaluated after 13 days
Procedure, shortened: as §2

[28] = test system: ducksalad (Heteranthera limosa); assay: as above; details: 250 g ai/ha, Flood, applied to paddy water, evaluated after 13 days
Procedure, shortened: as §2

[29] = 62 g ai/ha, 0 = no effect, 100 = complete control
[30] = 62 g ai/ha, postemergence, 10 days, 0 = no effect, 100 = complete control
[31] = Postemergence, 16 g ai/ha, greenhouse 10 days, 0 no effect, 100 complete control

CC1(C(=O)NC2CC=C(C(=O)OCC(F)(F)F)C2)CN(c2cc(Cl)cc(Cl)c2)C(=O)O1 (stereo not shown) [Compound 96]
70: Horseweed plant response rating (0-100) [18, 30] | Pigweed, Palmer plant response rating (0 to 100 scale) [22, 31] | Galium plant response rating (0 to 100 scale) [23, 31] | Kochia plant response rating (0 to 100 scale) [24, 31] | Plant response rating, Ducksalad (0 to 100 scale, 0 is no effect and 100 is complete control) [28]
50: Oat, Wild plant response rating (0 to 100 scale) [14, 31]
100: Pigweed, Palmer plant response rating ([10]; 16 g ai/ha, 0 to 100 scale) | Corn plant response rating (0-100) [16, 30] | Corn plant response rating (0 to 100 scale) [16, 31] | Barnyardgrass plant response rating (0-100) [19, 30] | Barnyardgrass plant response rating (0 to 100 scale) [19, 31]
40: Corn plant response rating (0-100) [5, 29] | Horseweed plant response rating (0 to 100 scale) [18, 31] | Ragweed plant response rating (0 to 100 scale) [21, 31]
20: Oat, Wild plant response rating (0-100) [3, 29] | Ryegrass, Italian plant response rating ([4]; 16 g ai/ha, 0 to 100 scale)
30: Soybean plant response rating (0-100) [2, 29] | Wheat plant response rating (0 to 100 scale) [20, 31]
80: Soybean plant response rating (0-100) [13, 30] | Soybean plant response rating (0 to 100 scale) [13, 31] | Oat, Wild plant response rating (0-100) [14, 30] | Ryegrass, Italian plant response rating (0 to 100 scale) [15, 31] | Blackgrass plant response rating (0 to 100 scale) [17, 31] | Kochia plant response rating (0-100) [24, 30]
25: Plant response rating, Rice (0 to 100 scale, 0 is no effect and 100 is complete control) [27]
60: Ryegrass, Italian plant response rating (0-100) [4, 29] | Barnyardgrass plant response rating (0-100) [7, 29] | Ragweed plant response rating (0-100) [21, 30]
0: Oat, Wild plant response rating ([3]; 16 g ai/ha, 0 to 100 scale) | Corn plant response rating ([5]; 16 g ai/ha, 0 to 100 scale) | Blackgrass plant response rating ([6]; 16 g ai/ha, 0 to 100 scale) | Blackgrass plant response rating (0-100) [6, 29] | Wheat plant response rating ([8]; 16 g ai/ha, 0 to 100 scale) | Wheat plant response rating (0-100) [8, 29] | Ragweed plant response rating ([9]; 16 g ai/ha, 0 to 100 scale) | Ragweed plant response rating (0-100) [9, 29] | Kochia plant response rating ([11]; 16 g ai/ha, 0 to 100 scale) | Kochia plant response rating (0-100) [11, 29]
10: Foxtail, Green plant response rating ([1]; 16 g ai/ha, 0 to 100 scale) | Soybean plant response rating ([2]; 16 g ai/ha, 0 to 100 scale) | Barnyardgrass plant response rating ([7]; 16 g ai/ha, 0 to 100 scale)
90: Foxtail, Green plant response rating (0-100) [1, 29] | Pigweed, Palmer plant response rating (0-100) [10, 29] | Foxtail, Green plant response rating (0-100) [12, 30] | Foxtail, Green plant response rating (0 to 100 scale) [12, 31] | Ryegrass, Italian plant response rating (0-100) [15, 30] | Blackgrass plant response rating (0-100) [17, 30] | Wheat plant response rating (0-100) [20, 30] | Pigweed, Palmer plant response rating (0-100) [22, 30] | Galium plant response rating (0-100) [23, 30]
95: Plant response rating, Sedge, Umbrella (0 to 100 scale, 0 is no effect and 100 is complete control) [25] | Plant response rating, Barnyardgrass (0 to 100 scale, 0 is no effect and 100 is complete control) [26]
